Experiments:
[1] = biological target: potassium channels (Sus scrofa, UniProt F1SR11); assay: Functional potassium channel opening activity in isolated Landrace pig bladder strips (field-stimulated twitch); details: for Landrace Pig Bladder Index: ED50 for P1075 divided by ED50 for the test agonist, averaged over tissues; for Landrace Pig Bladder pD2: negative logarithm of ED50; for Emax: pig, maximal efficacy relative to P1075, field stimulation 0.05Hz, 0.5 milli-seconds at 20 volts
In short: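 Landrace pig bladder strips with the mucosa removed were field-stimulated (0.05 Hz, 0.5 ms, 20 V) in Krebs Ringer bicarbonate containing propranolol, and primed with 80 mM KCl. Cumulative concentration-response curves gave maximal efficacy relative to a reference potassium channel opener, pD2, and a potency index (reference ED50/test ED50) averaged across tissues.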

Row | melting point | SMILES | other results
1 | 253 to 256 °C | O=C1CCC2=C1C(c1ccc(Br)cc1)C1=C(CCS1(=O)=O)N2 (centres unmarked) [Example 78] | 
2 | 180 to 183 °C | O=S1(=O)CCC2=C1C(c1ccc(F)c(Cl)c1)C=C(C(F)(F)F)N2 (centres unmarked) [Example 163, 7-(3-chloro-4-fluorophenyl)-5-(trifluoromethyl)-2,3,4,7-tetrahydrothieno[3,2-b]pyridine, 1,1-dioxide] | 
3 | > 250 °C | O=C1CCC2=C1C(c1ccc(Cl)c(Cl)c1)C1=C(CCS1(=O)=O)N2 (single isomer, unassigned) [Example 145] | 
4 | 262 to 265 °C (dec.) | CC1(C)CCC2=C(C1=O)C(c1ccc(Cl)c(Cl)c1)C1=C(CCS1(=O)=O)N2 (centres unmarked) [Example 127, 9-(3,.4-dichlorophenyl)-7,7-dimethyl-2,3.5,.6,7,9-hexahydrothieno[3,*2-b Iquinolin-8(4H)-one, 1,1-dioxide] | 
5 | > 250 °C | O=C1CCCC2=C1C(c1ccc(Br)c(Br)c1)C1=C(CCS1(=O)=O)N2 (centres unmarked) [Example 137, 9-(3 4-dibromophenyl)-2,3,5,6,79-hexahydrothieno[3,2-b]quinolin-8(4H)-one 1 1-dioxide] | 
6 | > 260 °C | Cc1cc(C2C3=C(CCCC3=O)NC3=C2S(=O)(=O)CC3)ccc1F (centres unmarked) [Example 111, 9-(4-fluoro-3-methylphenyl)-2,3,5,6,7,9-hexahydrothieno[3,2-b]quinolin-8(4H)-one, 1,1-dioxide] | 
7 | > 260 °C | O=C1CCC2=C1C(c1cccc([N+](=O)[O-])c1)C1=C(CCCS1(=O)=O)N2 (centres unmarked) [Example 55, 3,4,5,6,7,9-hexahydro-9-(3-nitrophenyl)cyclopenta[b]thiopyrano [2,3-e]pyridin-8(2H)-one, 1,1-dioxide] | 
8 | > 250 °C | N#Cc1ccc(C2C3=C(CCCC3=O)NC3=C2S(=O)(=O)CC3)s1 (centres unmarked) [Example 175, 9-(5-cyano-2-thienyl)-2,3,5,6,7,9-hexahydrothieno[3,2-b]guinolin-8(4H)-one, 1,1-dioxide] | 
9 | > 250 °C | O=C1CCCC2=C1C(c1cc(Cl)ccc1O)C1=C(CCS1(=O)=O)N2 (centres unmarked) [Example 120, 9-(5-chloro-2-hydroxyphenyl)-2,3,5,6,7,,9-hexahydrothieno[3 .2-b]guinolin-8(4H)-one, 1. I -dioxide] | 
10 | > 250 °C | O=C1CCCC2=C1C(c1ccc(F)c(C(F)(F)F)c1)C1=C(CCS1(=O)=O)N2 (single isomer, unassigned; (+)) [Example 138, (+)-9-[4-fluoro-3-(trifluoromethyl)phenyl]-2,3,5,6,7,9-hexahydrothieno[3,2-b]quinolin-8(4H)-one, 1,1-dioxide] | 
11 | 254 to 255 °C | O=C1CCC2=C1C(c1cc(Br)cs1)C1=C(CCS1(=O)=O)N2 (centres unmarked) [Example 67] | 
12 | 248 °C | N#Cc1cccc(C2C3=C(CCS3(=O)=O)NC3=C2S(=O)(=O)CC3)c1 [Example 62, 8-(3-cyanophenyl)-2,3,4,5,6,8-hexahydrodithieno [3.2-b:2′,3′-e]pyridine. 1,1,7,7-tetraoxide] | 
13 | > 250 °C | O=C1CCCC2=C1C(c1cc(Br)cs1)C1=C(CCS1(=O)=O)N2 (centres unmarked) [Example 129, 9-(4-bromo-2-thienyl)-2,3,5,6,7,9-hexahydrothieno[3,2-b]quinolin-8(4H)-one, 1,1-dioxide] | 
14 | > 250 °C | O=C1CCCC2=C1C(c1ccc(Br)s1)C1=C(CCS1(=O)=O)N2 (centres unmarked) [Example 128, 9-(5-bromo-2-thienyl)-2,3,5,6,7,9-hexahydrothieno[3,2-b]quinolin-8(4H)-one, 1,1-dioxide] | 
15 | > 250 °C | O=C1CCCC2=C1C(c1ccncc1)C1=C(CCS1(=O)=O)N2 (centres unmarked) [Example 118, 9-(4-pyridinyl)-2,3.5,6,7,9-hexahydrothieno[3,2-b]quinolin-8(4H)-one, 1,1-dioxide] | 
16 | > 260 °C | O=[N+]([O-])c1cccc(C2C3=C(CCCS3(=O)=O)NC3=C2S(=O)(=O)CCC3)c1 [Example 59, 3,4,6,7,8,10-hexahydro-10-(3-nitrophenyl)-2H,5H-dithiopyrano [3.2-b:2′,3′-e]pyridine, 1,1,9,9-tetraoxide] | 

Row | melting point | SMILES | other results
17 | > 250 °C | O=C1CCC2=C1C(c1ccc(F)c(I)c1)C1=C(CCS1(=O)=O)N2 (centres unmarked) [Example 90] | 
18 | > 260 °C | O=C1CCC2=C1C(c1ccc(F)c(F)c1)C1=C(CCS1(=O)=O)N2 (centres unmarked) [Example 79] | 
19 | > 250 °C | O=C1CCCC2=C1C(c1cccnc1)C1=C(CCS1(=O)=O)N2 (centres unmarked) [Example 117, 9-(3-pyridinyl)-2,3,5,6,7,9-hexahydrothieno[3,2-b]quinolin-8(4H)-one, 1,1-dioxide] | 
20 | > 250 °C | O=C1CCC2=C1C(c1ccc(Cl)c([N+](=O)[O-])c1)C1=C(CCS1(=O)=O)N2 (single isomer, unassigned) [Example 160] | 
21 | > 260 °C | O=C1CCC2=C1C(c1ccc(Cl)c(F)c1)C1=C(CCS1(=O)=O)N2 (centres unmarked) [Example 80] | 
22 | > 250 °C | N#Cc1cccc(C2C3=C(CCC3=O)NC3=C2S(=O)(=O)CC3)c1 (single isomer, unassigned; (-)) [Example 162] | 
23 | > 270 °C | CC1(C)CCC(=O)C2=C1NC1=C(C2c2ccc(F)c(Br)c2)S(=O)(=O)CC1 (centres unmarked) [Example 212] | 
24 | 275 to 280 °C (dec.) | N#Cc1cc(C2C3=C(CCS3(=O)=O)NC3=C2S(=O)(=O)CC3)ccc1F [Example 82] | 
25 | 218 to 220 °C | CC1=C(S(C)(=O)=O)C(c2ccc(Cl)c(Cl)c2)C2=C(CCC2=O)N1 (centres unmarked) [Example 75, 4-(3,4-dichlorophenyl)-1,4,6,7-tetrahydro-2-methyl-3-(methylsulfonyl)-5H-cyclopentafblpyridin-5-one] | 
26 |  | CC(=O)C1=C(C)NC2=C(C1c1ccc(Cl)c([N+](=O)[O-])c1)S(=O)(=O)CCC2 (centres unmarked) [Example 36] | Landrace Pig Bladder Index [1]: 0.040; Landrace Pig Bladder pD2 [1]: 5.5; Emax [1]: 97%
27 | > 250 °C | O=C1CCCC2=C1C(c1ccc(Cl)c(C(F)(F)F)c1)C1=C(CCS1(=O)=O)N2 (centres unmarked) [Example 151, 9-[4-chloro-3-(trifluoromethyl)phenyl]-2,3,5,6,7,9-hexahydrothieno [32-b]quinolin-8(4H)-one, 1,1-dioxide] | 
28 |  | N#Cc1cccc(C2C3=C(CCC3=O)NC3=C2S(=O)(=O)CC3)c1 (single isomer, unassigned; (+)) [Example 164] | Landrace Pig Bladder Index [1]: 0.0071; Landrace Pig Bladder pD2 [1]: 5.0; Emax [1]: 94%
29 |  | N#Cc1cccc(C2C3=C(CCCC3=O)NC3=C2S(=O)(=O)CCC3)c1 (centres unmarked) [Example 5, 10-(3-cyanophenyl)-3,4,6,7,8,10-hexahydro-2H-thiopyrano [3,2-b]quinolin-9(5H)-one, 1,1-dioxide] | Landrace Pig Bladder Index [1]: 0.0076; Landrace Pig Bladder pD2 [1]: 4.8; Emax [1]: 96%
30 |  | CC1=C(S(C)(=O)=O)C(c2ccc(F)c(Br)c2)C2=C(CCCC2=O)N1 (centres unmarked) [Example 25, 4-(3-bromo-4-fluorophenyl)-4,6,7,8-tetrahydro-2-methyl-3-(methylsulfonyl)-5(1H)-guinolinone] | Landrace Pig Bladder Index [1]: 0.038; Landrace Pig Bladder pD2 [1]: 5.4; Emax [1]: 88%
31 |  | O=C1CCCC2=C1C(c1cc(Br)cs1)C1=C(CCS1(=O)=O)N2 (single isomer, unassigned) [Example 180, 9-(4-bromo-2-thienyl)-2,3 5,6,7,9-hexahydrothieno[3 2-b]quinolin-8(4H)-one 1,1-dioxide] | Landrace Pig Bladder Index [1]: 0.036; Landrace Pig Bladder pD2 [1]: 5.5; Emax [1]: 71%
